Laboratory results reported in ChEMBL document CHEMBL3886950, “Furanone compounds as kinase inhibitors” (2016).

These compounds were tested against Serine/threonine-protein kinase B-raf (Homo sapiens, UniProt P15056, V600E) (assay: LanthaScreen Kinase Assay: The BRAFV600E enzymatic assay was performed using a LanthaScreen kinase assay kit purchased from Life Technologies (Grand Island, N.Y.). The assay was conducted according to the procedure provided in the assay kit. […] The final reaction volume for each reaction was 10 ul. The reaction was stopped by addition of 10 ul of TR-FRET dilution buffer kinase supplemented with kinase quench buffer (10 mM final) and Tb-anti-pMAP2K1 (2 nM final). The plate was further incubated at room temperature for another 60 minutes, and the fluorescent signals were read on Victor 5 (Perkin Elmer) with excitation at 340 nm and emission at 495 and 520 nM. The assay signal was determined as a ratio of FRET-specific signal measured with emission filter at 520 nM to that of the signal measured with Tb-specific emission filter at 495 nM. IC50 value was calculated using appropriate programs in GraphPad Prism by plotting the logarithm of the concentration versus percent inhibition.).
Chain of Serine/threonine-protein kinase B-raf (P15056 2-766 V600E limits assumed): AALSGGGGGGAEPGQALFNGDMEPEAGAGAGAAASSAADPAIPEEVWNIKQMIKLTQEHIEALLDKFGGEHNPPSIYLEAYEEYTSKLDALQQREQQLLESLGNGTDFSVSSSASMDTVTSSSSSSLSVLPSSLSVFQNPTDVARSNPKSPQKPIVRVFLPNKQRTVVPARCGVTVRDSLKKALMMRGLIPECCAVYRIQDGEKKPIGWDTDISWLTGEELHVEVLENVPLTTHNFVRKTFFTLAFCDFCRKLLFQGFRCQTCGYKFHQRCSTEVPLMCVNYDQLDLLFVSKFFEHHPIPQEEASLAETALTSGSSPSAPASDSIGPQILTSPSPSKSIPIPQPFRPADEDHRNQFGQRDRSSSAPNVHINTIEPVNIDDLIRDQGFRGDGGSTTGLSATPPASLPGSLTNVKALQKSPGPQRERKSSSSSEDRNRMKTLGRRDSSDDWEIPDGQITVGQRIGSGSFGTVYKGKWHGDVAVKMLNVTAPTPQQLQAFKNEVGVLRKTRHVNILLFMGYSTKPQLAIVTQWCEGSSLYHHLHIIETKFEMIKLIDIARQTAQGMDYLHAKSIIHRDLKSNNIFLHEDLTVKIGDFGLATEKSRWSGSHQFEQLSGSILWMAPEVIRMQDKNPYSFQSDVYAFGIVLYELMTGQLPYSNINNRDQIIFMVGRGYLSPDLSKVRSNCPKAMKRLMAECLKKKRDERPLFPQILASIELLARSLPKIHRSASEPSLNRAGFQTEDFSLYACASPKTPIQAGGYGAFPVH

Q: With Nc1nccc(C2=C(c3cccc(NS(=O)(=O)c4c(F)cccc4F)c3F)C(=O)C3(CCCC3)O2)n1 as the compound, how does the IC50 read?
A: Its IC50 is 29 nM.

Q: With CC1(C)OC(c2ccnc(N)n2)=C(c2cc(Cl)cc(NS(=O)(=O)c3ccc(F)cc3F)c2F)C1=O as the compound, how does the IC50 read?
A: Its IC50 is 10 nM.

Q: For CC1(C)OC(c2ccnc(N)n2)=C(c2cc(Cl)cc(NS(=O)(=O)c3c(F)cccc3F)c2F)C1=O, which IC50 is on record?
A: Its IC50 is 5.5 nM.
